This note sets out measurements from patent US20230128137A1, “BENZO FIVE-MEMBERED CYCLIC COMPOUND” (MEDSHINE DISCOVERY INC., priority 2020, published 2023).

Series [1] deals with T1, Bcl-2 (Homo sapiens, UniProt P10415).
T1 construct: Human recombinant Bcl-2 (amino acid 1-207); purchased Reaction Biology Corporation (RBC) APT-11-441; host or cells: E. coli
Kind of series: HTRF competition test, Bcl-2 with FAM-BAK peptide (enzymology experiment). The series is classed as binding. The note with it: 4 nM Bcl-2 and 100 nM FAM-BAK, read-out: IC50 (nM) for inhibition of Bcl-2 enzyme. On the procedure:
This experiment was based on the competition between fluorescently-labeled Bak/Bad/Noxa peptides and GST-labeled Bcl family proteins. The fluorescence detection method based on HTRF was to observe the binding degree by using the fluorescence ratio between Tb-labeled anti-GST and FAM-labeled peptides. This peptide binds to the surface of the Bcl family protein pocket, which is essential for its anti-apoptotic function.
1.1 Experimental reagents: analysis buffer: 20 mM potassium phosphate, pH 7.5, 50 mM sodium chloride, 1 mM EDTA, 0.005% Tritonx-100 and 1% DMSO.
1.2 Probe: 5,6-FAM-peptide
1.4 Experimental Conditions:
4 nM Bcl-2 and 100 nM FAM-BAK
a) The Bcl enzyme reaction solution was prepared in the newly prepared analysis buffer;
b) the Bcl enzyme reaction solution was provided;
c) the compound was first prepared into a 100% dimethyl sulfoxide solution, and then the compound solution was mixed with the Bcl enzyme reaction solution using (Echo550; nanoliter range) technology, and co-incubated for 10 minutes;
d) the FAM peptide solution was added.
e) the mixed solution was gently stirred in dark and room temperature, and co-cultured for 10 minutes.
f) Anti-GST solution was added.
g) The mixed solution was gently stirred in dark and room temperature, and co-cultured for 1 hour.
h) The HTRF high-frequency fluorescence ratio was tested, and the IC50 values were calculated.

The nature of series [2]: Liver microsome metabolic stability in vitro, beagle dog. Format: in vitro ADME. The following applies: beagle dog liver microsomes. On the procedure:
3.2 preparation of nicotinamide adenine dinucleotide phosphate cofactor solution: an appropriate amount of NADPH powder was weighed and diluted into 10 mM magnesium chloride solution (working solution concentration: 10 unit/mL; final concentration of reaction system: 1 unit/mL);
3.3 preparation of liver microsomes: an appropriate concentration working solution of liver microsomes (human, SD rat, CD-1 mouse, beagle dog) was prepared in 100 mM potassium phosphate buffer;
3.4 preparation of quenching solution: cold (4° C.) acetonitrile containing 200 ng/mL tolbutamide and 200 ng/mL labetalol as internal standard (IS) was used as quenching solution;
3.5 experimental operation:
a. empty “incubation” plates T60 and NCF60 were preheated for 10 minutes;
b. the liver microsomes were diluted to 0.56 mg/mL with 100 mM phosphate buffer;
c. 445 μL of microsomal working solution (0.56 mg/mL) was transferred to the preheated “incubation” plates T60 and NCF60, and then the“incubation” plates T60 and NCF60 were preincubated for 10 min with continuous shaking at 37° C. 54 μL of liver microsomes were transferred to a blank plate, and 6 μL of NAPDH cofactor was added to the blank plate, and then 180 μL of quenching solution was added thereto;
e. for NCF60 plate, 50 μL of buffer was added thereto and the mixture was fully mixed for three times. Timing was started; the plate was shaken at 37° C. for 60 minutes;
f. in “quenching” plate TO, 180 μL of quenching solution and 6 μL of NAPDH cofactor were addded to make sure that the plate was cooled down to prevent evaporation;
g. for T60 plates, the mixture was fully mixed for three times, and 54 μL of mixture was immediately transferred to the “quenching” plate at the 0 min time point. 44 μL of NAPDH cofactor was then added to the culture plate (T60). Timing was started; the plate was shaken at 37° C. for 60 minutes;
h. at 5, 10, 20, 30 and 60 min, 180 μL of quenching solution was added to the “quenching” plate, and the mixture was mixed for one time, and 60 μL of sample was continuously transferred from the T60 plate to the “quenching” plate at each time point;
i. for NCF60: the mixture was mixed for one time, and 60 μL of sample was transferred from the NCF60 culture dish to the “quenching” plate containing quenching solution at 60 minutes time point;
j. all sampling plates were shaked for 10 minutes, then centrifuged at 4000 rpm for 20 minutes at 4° C.;
k. 60 μL of supernatant was transferred into 180 μL of HPLC water and stirred with a plate shaker for 10 min;
1. before LC-MS/MS analysis, each bioanalysis plate was sealed and shaked for 10 minutes.

For series [3], the system named is RS4;11 cells. The experiment in a line: CTG (CellTiter-Glo) test of inhibition of RS4;11 cell proliferation. Format: cell-based. The following applies: Homo sapiens, 72 hours incubation. As to the method: 2.1 Experimental objectives: To obtain the IC50 value of the test compound in RS4;11 cell lines;
2.2 incubation time: 72 hours;
2.3 experimental method: CTG (Cell Titer-Glo™ Luminescent Cell Viability Assay);
a. when the cells were fused to 80%, the cells were collected and counted;
b. RS4; 11 cell suspension was diluted to 5000 cells/well and 20 uls of cell suspension was seeded in each well of 384-well plate;
c. the cell plates were placed back to 37° C. and incubated in a 5% carbon dioxide incubator for 24 hours;
d. the test compound was prepared into DMSO solution, and 5 μL of each was added to the designated well of the test plate, and the final concentration of DMSO solution was 0.5%;
e. initiation cell viability was detected by CTG;
f. the test plate was put back into the incubator and incubated for another 72 hours;
g. after 72 hours incubation, CellTiter-Glo™ luminescent cell viability assay was completed according to the manufacturer's manual;

T1 sequence (P10415 1-207): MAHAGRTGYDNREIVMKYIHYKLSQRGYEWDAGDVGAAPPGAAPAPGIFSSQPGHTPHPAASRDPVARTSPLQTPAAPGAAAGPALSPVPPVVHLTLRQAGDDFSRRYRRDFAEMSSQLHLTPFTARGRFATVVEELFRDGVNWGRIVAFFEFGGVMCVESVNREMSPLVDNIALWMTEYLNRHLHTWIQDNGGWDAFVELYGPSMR

Take `CC1(C)CCC(CN2CCN(c3ccc(C(=O)NS(=O)(=O)c4cc([N+](=O)[O-])c(NCC5CCOCC5)c5[nH]cnc45)c(Oc4cnc5[nH]ccc5c4)c3)CC2)=C(c2ccc(Cl)cc2)C1` [Compound 2]: the IC50 in series [1] worked out at 1.5 nM. Also, in series [2], the intrinsic metabolic clearance (CLint scaled) at 1 µM is 26.8 mL/min/kg and the half-life at 1 µM was determined as 1.24 h. In addition, in series [2] (60 min incubation), the “Remaining (T = 60 min)” value was 52%. The IC50 in series [3] turned out to be 2.7 nM.
